# Where “and” joins values, the source holds several entries; their conditions need not be identical. Equal values may be shown once.
# Tests used:
# Botrytis cinerea = test: Treatment of strawberries (Example 5): wounded, inoculated, dipped in antifungal composition; type: in vivo; conditions: 500 ppm natamycin, 600 ppm fenpropidin or both; for Observed antifungal activity O (%): strawberries, 20° C.
# Description: Twelve fresh, organic strawberries were used per treatment. Each strawberry was wounded with a 0.5 mm long cut and each wound was inoculated with 10 μl of a Botrytis cinerea suspension containing 1×10^5 of spores/ml. […] A composition without natamycin or fenpropidin was used as control. […] The treated strawberries were incubated in a closed box in the dark at 20° C. for 9 days. During incubation, mould growth on the strawberries was assessed in a twofold manner: […] The expected antifungal activity (E in %) of the combined antifungal composition comprising both active ingredients was calculated according to the Colby equation (Colby, 1967): […] wherein X and Y are the observed antifungal activities (in %) of the individual active ingredients X and Y, respectively.
# Penicillium italicum = test: Treatment of oranges (Examples 6-9): wounded, inoculated, wound treated with antifungal composition; type: in vivo; conditions: for Observed antifungal activity O (%): oranges, 20° C.
# Description: During incubation, mould growth on the strawberries was assessed in a twofold manner: (i) the number of moulded strawberries per total of 12 strawberries was counted; and (ii) the antifungal activity (in %) of the individual and combined active ingredients was determined by calculating the reduction in mould growth observed on the strawberries treated with the antifungal composition in comparison to the mould growth on the strawberries treated with the control composition. The expected antifungal activity (E in %) of the combined antifungal composition comprising both active ingredients was calculated according to the Colby equation (Colby, 1967): […]
# Eight fresh, organic oranges were used per treatment. Each orange was soaked in a 180 ppm hypochlorite solution for 10 minutes, then rinsed thoroughly with fresh tap water and dried. The peel of each disinfected orange was wounded once using a cork borer according to the method described by de Lapeyre de Bellaire and Dubois (1987). Subsequently, each wound was inoculated with 10 μl of a Penicillium italicum suspension containing 5×10^5 of spores/ml. After incubation for 3 hours at 20° C., each wound and the orange peel area of 1 cm around the wound was treated with in total 150 μl of a freshly prepared aqueous antifungal composition comprising either 500 ppm natamycin (DSM Food Specialties, Delft, The Netherlands), 500 ppm fenpropidin or both. Each antifungal composition also comprised 3.2% (w/w) beeswax, 0.8% (w/w) glycerol, 0.7% (w/w) polyoxyethylene sorbitan monostearate (Tween 60), 0.1% (w/w) polyoxyethylene sorbitan monooleate (Tween 80), 0.05% (w/w) methylhydroxyethyl-cellulose (MHEC), 0.03% (w/w) anti-foaming agent, 0.02% (w/w) xanthan gum, 0.02% (w/w) citric acid, 0.01% (w/w) lactic acid and 0.01% potassium sorbate. A composition without natamycin or fenpropidin was used as control. […] The treated oranges were incubated in a closed box in the dark at 20° C. and assessed on mould growth during a 28-day incubation period. The antifungal activity (in %) of the individual and combined active ingredients was determined by calculating the reduction in mould growth observed on the oranges treated with the antifungal composition in comparison to the mould growth on the oranges treated with the control composition according to the Colby method (Colby, 1967) as described in Example 5.
# (§1) The experiment was conducted as described in Example 6, except for the fact that each wounded and inoculated orange was treated with 150 μl of a freshly prepared aqueous antifungal composition comprising either 250 ppm natamycin (DSM Food Specialties, Delft, The Netherlands), 250 ppm fenpropidin or both. During the 26-day incubation period, the treated oranges were assessed on mould growth according to the two methods described in Example 5.
# as §1, with “either 500” for “either 250”, “Netherlands), 400” for “Netherlands), 250”, “ppm spiroxamine” for “ppm fenpropidin”
# as §1, with “Netherlands), 200” for “Netherlands), 250”, “ppm spiroxamine” for “ppm fenpropidin”
structure (smiles),measurement,setting,value
"CC(Cc1ccc(C(C)(C)C)cc1)CN1CCCCC1 (stereo not drawn) [Fenpropidin, fenpropidin]",Number of moulded strawberries/total number of 12 strawberries,"Botrytis cinerea; Day 5, 20° C.",12 and 12/12
same,Number of moulded strawberries/total number of 12 strawberries,"Botrytis cinerea; Day 6, 20° C.",12 and 12/12
same,Observed antifungal activity O (%),Botrytis cinerea; day 4,0%
same,Observed antifungal activity O (%),Botrytis cinerea; day 5,0%
same,Observed antifungal activity O (%),Botrytis cinerea; day 6,0%
same,Observed antifungal activity O (%),Botrytis cinerea; day 7,0%
same,Observed antifungal activity O (%),Botrytis cinerea; day 8,0%
same,Observed antifungal activity O (%),Botrytis cinerea; day 9,0%
same,Number of moulded oranges/total number of 8 oranges,"Penicillium italicum; Day 18, 20° C., 250 ppm natamycin, 250 ppm fenpropidin or both",6/8
same,Number of moulded oranges/total number of 8 oranges,"Penicillium italicum; Day 19, 20° C., 250 ppm natamycin, 250 ppm fenpropidin or both",6/8
same,Number of moulded oranges/total number of 8 oranges,"Penicillium italicum; Day 20, 20° C., 250 ppm natamycin, 250 ppm fenpropidin or both",7/8
same,Number of moulded oranges/total number of 8 oranges,"Penicillium italicum; Day 21-22, 20° C., 250 ppm natamycin, 250 ppm fenpropidin or both",7 and 7/8
same,Number of moulded oranges/total number of 8 oranges,"Penicillium italicum; Day 23-26, 20° C., 250 ppm natamycin, 250 ppm fenpropidin or both",7 and 7/8
same,Observed antifungal activity O (%),"Penicillium italicum; day 18, 250 ppm natamycin, 250 ppm fenpropidin or both",59%
same,Observed antifungal activity O (%),"Penicillium italicum; day 19, 250 ppm natamycin, 250 ppm fenpropidin or both",50%
same,Observed antifungal activity O (%),"Penicillium italicum; day 20, 250 ppm natamycin, 250 ppm fenpropidin or both",43%
same,Observed antifungal activity O (%),"Penicillium italicum; day 21, 250 ppm natamycin, 250 ppm fenpropidin or both",38%
same,Observed antifungal activity O (%),"Penicillium italicum; day 22, 250 ppm natamycin, 250 ppm fenpropidin or both",30%
same,Observed antifungal activity O (%),"Penicillium italicum; day 22, 500 ppm natamycin, 500 ppm fenpropidin or both",94%
same,Observed antifungal activity O (%),"Penicillium italicum; day 23, 250 ppm natamycin, 250 ppm fenpropidin or both",16%
same,Observed antifungal activity O (%),"Penicillium italicum; day 23, 500 ppm natamycin, 500 ppm fenpropidin or both",89%
same,Observed antifungal activity O (%),"Penicillium italicum; day 25, 250 ppm natamycin, 250 ppm fenpropidin or both",4%
same,Observed antifungal activity O (%),"Penicillium italicum; day 25, 500 ppm natamycin, 500 ppm fenpropidin or both",84%
same,Observed antifungal activity O (%),"Penicillium italicum; day 26, 250 ppm natamycin, 250 ppm fenpropidin or both",0%
same,Observed antifungal activity O (%),"Penicillium italicum; day 26, 500 ppm natamycin, 500 ppm fenpropidin or both",81%
same,Observed antifungal activity O (%),"Penicillium italicum; day 27, 500 ppm natamycin, 500 ppm fenpropidin or both",80%
same,Observed antifungal activity O (%),"Penicillium italicum; day 28, 500 ppm natamycin, 500 ppm fenpropidin or both",75%

# From patent US20150133297A1, “NEW ANTIFUNGAL COMPOSITIONS” (DSM IP ASSETS B.V., priority 2012, published 2015)
